From US9340477B2, “Process for production of hydroxystilbene derivative having physiological activity” (UHA MIKAKUTO CO., LTD., priority 2010, dated 2016)

Assays:
[1] = tested on: HL-60 cells (human promyelocytic leokemia cells); assay: Cancer cell growth suppressing action using HL-60 cells (Cell counting kit-8); assay type: cell-based; settings: 24 hours, 6.3-100 μM, viable cells vs DMSO only, read-out: Cell growth suppressing ability to HL-60 (IC50)
Description: Next, in order to see the effect of the hydroxystilbene derivative to cancer cells, cancer cell growth suppressing action using HL-60 cells (human promyelocytic leokemia cells) was tested.
For culturing the HL-60 cells, an enriched culture medium “RPMI-1640” (manufactured by Sigma-Aldrich Japan) containing 4 mM glutamine (L-Glutamine, manufactured by Sigma-Aldrich Japan) and 10% FBS (Foetal Bovine Serum, manufactured by Biological Industries) was used. For the test, a 96-well plate for cell culture (manufactured by Corning Japan) was used, and the HL-60 cells whose number of cells was adjusted to be 5×10^5 cells/mL were seeded at 100 μL per well
As samples, p-coumaric acid, ferulic acid, caffeic acid, sinapic acid, resveratrol, pterostilbene, and the UHA1027, the UHA1028, the UHA1123, the UHA1124, the UHA1125, the UHA7032, the UHA7033, and the UHA9021 which were already purified were used. With respect to the preparation of the samples, each compound was dissolved in DMSO (Wako Pure Chemical Industries, Ltd.), and then adjusted in such a manner that the final concentration in the HL-60 cell culture solutions was 6.3 μM, 12.5 μM, 25 μM, 50 μM, and 100 μM. Then, the test was started.
The number of viable cells was quantified by an MTT method using a “Cell counting kit-8” (manufactured by DOJINDO LABORATORIES). 24 hours after starting the test, 10 μL of a Cell counting kit-8 solution was added to each well, and then sufficiently stirred. After a shading reaction for 1 hour, the absorbancy was measured at a measurement wavelength of 450 nm using a plate leader (Biorad Laboratories, Inc., “BIO-RAD Model 680”). Then, the cell viability was calculated based on the obtained data. The cell viability is a value obtained by setting the number of viable cells of the culture liquid to which only DMSO as a solvent was added to 100%, and then calculating the number of viable cells under the concentration of each compound as a relative value. From the relationship between the concentration of each compound and the cell viability, the concentration IC50 (50% inhibition concentration) at which the cell growth is suppressed by 50% was calculated.

[2] = Physicochemical properties: solubility in solvents
[3] = tested on: SCC-4 cells (human oral cancer cells, ATCC); assay: Cancer cell growth suppressing action using SCC-4 oral cancer cells (Cell counting kit-8); assay type: cell-based; settings: 6.3-100 μM, Cell counting kit-8, DMSO negative control, read-out: Cell growth suppressing ability (IC50)
Description: Next, in order to see the effect of the hydroxystilbene derivative to oral cancer cells, cancer cell growth suppressing action using SCC-4 cells (human oral cancer cells, ATCC) was tested.
For culturing the SCC-4 cells, a DMEM/F-12 (1:1) culture medium (manufactured by GIBCO) containing 400 ng/mL hydrocortisone (manufactured by Sigma-Aldrich Japan), 1% antibiotic-antimycotic (manufactured by GIBCO), and 10% FBS (Foetal Bovine Serum, manufactured by ATCC) was used. For the test, a collagen I coat 96 well plate for cell culture (manufactured by Japan BD) was used, and SCC-4 cells whose number of cells was adjusted to be 5×10^5 cells/mL were seeded at 100 μL per well. The cells were cultured under the conditions of 37° C. and 5% CO2 for 24 hours, and were used for the test in a confluent state of 80% or higher.
As samples, p-coumaric acid, ferulic acid, caffeic acid, sinapic acid, resveratrol, pterostilbene, piceatannol, and the UHA1027, the UHA1028, the UHA1123, the UHA1124, the UHA1125, the UHA7032, the UHA7033, the UHA7034, and the UHA9021 which were already purified were used. With respect to the preparation of the samples, each compound was dissolved in DMSO, and then prepared in such a manner as to achieve 0.63 mM, 1.25 mM, 2.5 mM, 5 mM, and 10 mM. The samples were added in such a manner that the final concentration in the SCC-4 cell culture solution was 6.3 μM, 12.5 μM, 25 μM, 50 μM, and 100 μM. Then, the test was started. A sample to which an equivalent amount of only DMSO as the solvent was added was used as a negative control.
The number of viable cells was quantified by an MTT method using a “Cell counting kit-8” in the same manner as in Example 15, and the concentration IC50 at which the cell growth is suppressed by 50% was calculated.

[4] = biological target: rat intestine derived lipase; assay: Lipase inhibitory action test (Lipase kit S); assay type: biochemical; settings: rat intestine acetone powder lipase, 30° C., 10 minutes reaction
Description: In order to see the inhibitory action to lipase of the hydroxystilbene derivative, an inhibitory action test using rat intestine derived lipase was performed.
As lipase, one obtained by suspending 100 mg of rat derived intestine acetone powder (manufactured by Sigma-Aldrich Japan) in 1 mL of 100 mM citric acid buffer (pH 6.0), stirred at 4° C. for 1 hour, centrifuging the same (at 15000 rpm for 45 minutes at 4° C.), and then diluting the supernatant by 1500 times was used as a lipase solution.
As samples, p-coumaric acid, caffeic acid, sinapic acid, resveratrol, and the UHA1027, the UHA1028, and the UHA9021 which were already purified were used. With respect to the preparation of the samples, each compound was dissolved in DMSO, and then prepared in such a manner as to achieve 0.1 mM, 0.5 mM, 1 mM, 2 mM, and 4 mM.
For measuring the activity, a “Lipase kit S” (Trade name, manufactured by Dainippon Pharmaceutical Co., Ltd.) was used. First, in accordance with a preparation method described in the catalog of the Lipase kit S, a color developing liquid was prepared. Reaction liquids in which 70 μl of the color developing liquid, 2 μl of an esterase inhibitor, 10 μl of the lipase solution, and 10 μl of the samples (Final concentration: 10 μM, 50 μM, 100 μM, 200 μM, 400 μM, and 1000 μM) were mixed were prepared, preincubated at 30° C. for 5 minutes, and then 8 μl of a substrate solution described in the catalog was added. Then, a reaction was started. After reacting for 10 minutes, 150 μl of a reaction stop liquid prepared in accordance with the preparation method described in the catalog of the Lipase kit S was added to stop the reaction. The resultant substance was subjected to a measurement of absorbancy at a wavelength of 415 nm. A reaction liquid to which only DMSO as the solvent of the sample was added was used as a positive control and one to which 10 μl of 100 mM citric acid buffer (pH 6.0) was added instead of the lipase solution was used as a negative control. From the relationship between the lipase inhibition rate calculated based on the data obtained therefrom and the concentration of each compound, the concentration IC50 at which the lipase activity is inhibited by 50% was calculated.

| Structure (SMILES) | IC50 [1] [µM] | Solubility: DMSO [2] | Solubility: Chloroform [2] | Solubility: Ethanol [2] | Solubility: Ethyl acetate [2] | Solubility: Methanol [2] | Solubility: Water [2] | IC50 [3] [µM] | IC50 [4] [µM] |
| --- | --- | --- | --- | --- | --- | --- | --- | --- | --- |
| COc1cc(C(C)c2c(O)cc(/C=C/c3ccc(O)cc3)cc2O)ccc1O (stereo not shown) [UHA1123] | 31.5 | Soluble | Soluble | Soluble | Soluble | Soluble | Poorly soluble | 50.3 | – |
| CC(c1ccc(O)cc1)c1c(O)cc(/C=C/c2ccc(O)c(O)c2)cc1O (single isomer, unassigned) [UHA7034] | – | Soluble | Soluble | Soluble | Soluble | Soluble | Poorly soluble | 49.6 | – |
| Oc1ccc(C=Cc2cc(O)cc(O)c2)cc1 [Resveratrol, resveratrol, reference compound] | 76.5 | – | – | – | – | – | – | > 100 | > 1000 |
| O=C(O)/C=C/c1ccc(O)cc1 [p-coumaric acid, reference compound] | > 100 | – | – | – | – | – | – | > 100 | > 1000 |
| COc1cc(/C=C/C(=O)O)cc(OC)c1O [Sinapic acid, sinapic acid, reference compound] | > 100 | – | – | – | – | – | – | > 100 | > 1000 |
| O=C(O)/C=C/c1ccc(O)c(O)c1 [Coffeic acid, caffeic acid, reference compound] | > 100 | – | – | – | – | – | – | > 100 | > 1000 |
| Oc1cc(O)cc(/C=C/c2ccc(O)c(O)c2)c1 [Piceatannol, piceatannol, reference compound] | – | – | – | – | – | – | – | > 100 | – |
| COc1cc(/C=C/C(=O)O)ccc1O [Ferulic acid, ferulic acid, reference compound] | > 100 | – | – | – | – | – | – | > 100 | – |
| COc1cc(/C=C/c2ccc(O)cc2)cc(OC)c1 [Pterostilbene, pterostilbene, reference compound] | 60.4 | – | – | – | – | – | – | 73.9 | – |

The next molecules have a lower IC50 [3] than those just listed; values first:

| IC50 [1] [µM] | Solubility: DMSO [2] | Solubility: Chloroform [2] | Solubility: Ethanol [2] | Solubility: Ethyl acetate [2] | Solubility: Methanol [2] | Solubility: Water [2] | IC50 [3] [µM] | IC50 [4] [µM] | Structure (SMILES) |
| --- | --- | --- | --- | --- | --- | --- | --- | --- | --- |
| 13.4 | Soluble | Soluble | Soluble | Soluble | Soluble | Poorly soluble | 26.1 | – | COc1cc(C(C)c2c(O)cc(/C=C/c3ccc(O)cc3)c(C(C)c3ccc(O)c(OC)c3)c2O)ccc1O (stereo not shown) [UHA1125] |
| 31 | Soluble | Soluble | Soluble | Soluble | Soluble | Poorly soluble | 37 | – | COc1cc(/C=C/c2ccc(O)cc2)c(C(C)c2ccc(O)cc2)c(OC)c1 (stereo not shown) [UHA7032] |
| 43.4 | Soluble | Soluble | Soluble | Soluble | Soluble | Poorly soluble | 38.2 | 331 | CC(c1ccc(O)cc1)c1c(O)cc(/C=C/c2ccc(O)cc2)cc1O (single isomer, unassigned) [UHA9021] |
| 5.9 | Soluble | Soluble | Soluble | Soluble | Soluble | Poorly soluble | 28.9 | 452 | CC(c1ccc(O)c(O)c1)c1c(O)cc(/C=C/c2ccc(O)cc2)cc1O (single isomer, unassigned) [UHA1027] |
| 35.5 | Soluble | Soluble | Soluble | Soluble | Soluble | Poorly soluble | 41.7 | – | COc1cc(/C=C/c2ccc(O)cc2)cc(OC)c1C(C)c1ccc(O)cc1 (stereo not shown) [UHA7033] |
| 14.4 | Soluble | Soluble | Soluble | Soluble | Soluble | Poorly soluble | 17.4 | – | COc1cc(C(C)c2c(O)cc(O)cc2/C=C/c2ccc(O)cc2)ccc1O (stereo not shown) [UHA1124] |
| 14.1 | Soluble | Soluble | Soluble | Soluble | Soluble | Poorly soluble | 17.6 | 510 | COc1cc(C(C)c2c(O)cc(/C=C/c3ccc(O)cc3)cc2O)cc(OC)c1O (stereo not shown) [UHA1028] |
